{
  "source": "patent US20220127568A1",
  "about": "“COMPOSITIONS AND METHODS FOR GENERATING HAIR CELLS BY INHIBITING EPIGENETIC TARGETS” (Frequency Therapeutics, Inc., priority 2019, published 2022)",
  "key": {"[1]": {"tested_on": "Lgr5 GFP+ cochlear progenitor cells", "assay": "Lgr5+ Assay (Stem Cell Proliferation Assay)", "type": "cell-based"}, "[2]": {"tested_on": "Lgr5+ cochlear progenitor cells", "assay": "Quantification of Lgr5+ cochlear progenitor cell proliferation, expansion and enrichment (3D Matrigel culture, Celigo imaging, GFP(+) cell area)", "type": "cell-based, mouse", "settings": "for proliferation or enrichment of cochlear progenitor cells: inhibitor alone"}, "[3]": {"settings": "cited from earlier work"}, "EZH2 [4]": {"target": "T1, EZH2 (Homo sapiens, UniProt Q15910)", "T1 sequence (Q15910 whole entry, species assumed)": "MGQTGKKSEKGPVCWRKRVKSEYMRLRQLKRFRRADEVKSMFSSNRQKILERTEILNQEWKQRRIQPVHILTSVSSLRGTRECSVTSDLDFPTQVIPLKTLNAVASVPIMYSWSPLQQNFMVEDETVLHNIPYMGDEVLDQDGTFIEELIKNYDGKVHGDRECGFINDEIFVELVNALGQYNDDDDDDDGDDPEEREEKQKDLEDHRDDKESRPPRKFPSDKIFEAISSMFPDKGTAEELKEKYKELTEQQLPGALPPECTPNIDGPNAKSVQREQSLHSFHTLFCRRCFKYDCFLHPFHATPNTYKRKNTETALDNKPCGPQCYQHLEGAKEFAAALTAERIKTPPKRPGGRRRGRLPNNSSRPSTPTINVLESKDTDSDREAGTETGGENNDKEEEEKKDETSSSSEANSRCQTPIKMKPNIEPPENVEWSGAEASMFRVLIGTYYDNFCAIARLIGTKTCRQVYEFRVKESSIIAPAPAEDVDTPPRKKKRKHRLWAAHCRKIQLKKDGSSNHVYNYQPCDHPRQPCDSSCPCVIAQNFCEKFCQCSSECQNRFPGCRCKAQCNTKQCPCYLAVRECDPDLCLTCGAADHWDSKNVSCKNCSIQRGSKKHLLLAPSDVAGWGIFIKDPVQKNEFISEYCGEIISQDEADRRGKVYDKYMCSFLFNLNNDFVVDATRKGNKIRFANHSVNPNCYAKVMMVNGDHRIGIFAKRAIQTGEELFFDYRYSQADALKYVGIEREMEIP", "T1 sequence (O75530 whole entry partner, species assumed)": "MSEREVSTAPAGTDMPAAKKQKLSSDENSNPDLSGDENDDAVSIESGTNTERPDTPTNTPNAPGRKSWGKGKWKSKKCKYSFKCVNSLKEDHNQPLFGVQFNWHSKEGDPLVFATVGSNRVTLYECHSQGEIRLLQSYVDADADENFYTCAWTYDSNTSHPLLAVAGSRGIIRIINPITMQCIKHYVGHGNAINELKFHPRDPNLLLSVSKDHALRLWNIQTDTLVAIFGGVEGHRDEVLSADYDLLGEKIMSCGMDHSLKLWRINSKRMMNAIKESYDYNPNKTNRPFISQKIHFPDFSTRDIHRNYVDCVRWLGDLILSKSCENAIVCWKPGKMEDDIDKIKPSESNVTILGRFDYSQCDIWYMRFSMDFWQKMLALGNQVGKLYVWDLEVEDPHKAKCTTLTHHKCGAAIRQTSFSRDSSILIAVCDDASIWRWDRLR", "T1 sequence (Q15022 whole entry partner, species assumed)": "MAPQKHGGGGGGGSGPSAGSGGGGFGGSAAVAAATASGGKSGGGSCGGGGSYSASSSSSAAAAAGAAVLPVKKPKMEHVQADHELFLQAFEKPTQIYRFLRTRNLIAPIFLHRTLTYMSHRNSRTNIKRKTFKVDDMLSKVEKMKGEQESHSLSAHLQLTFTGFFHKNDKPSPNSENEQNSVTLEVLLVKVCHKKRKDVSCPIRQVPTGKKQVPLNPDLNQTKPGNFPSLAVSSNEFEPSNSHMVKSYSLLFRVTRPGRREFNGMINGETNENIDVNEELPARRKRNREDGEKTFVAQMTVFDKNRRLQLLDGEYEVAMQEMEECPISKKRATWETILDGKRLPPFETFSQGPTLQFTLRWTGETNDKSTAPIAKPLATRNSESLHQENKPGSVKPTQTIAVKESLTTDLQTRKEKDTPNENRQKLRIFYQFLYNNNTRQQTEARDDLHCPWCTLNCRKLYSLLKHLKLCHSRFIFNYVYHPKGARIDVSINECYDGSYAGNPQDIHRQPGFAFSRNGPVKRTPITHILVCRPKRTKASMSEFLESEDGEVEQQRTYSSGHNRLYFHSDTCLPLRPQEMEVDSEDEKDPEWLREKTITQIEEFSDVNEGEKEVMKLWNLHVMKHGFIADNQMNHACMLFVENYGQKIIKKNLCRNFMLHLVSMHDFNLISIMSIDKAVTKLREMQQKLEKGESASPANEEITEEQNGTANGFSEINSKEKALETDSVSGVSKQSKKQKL", "settings": "literature cell potency, EZH2 inhibitors; cited from earlier work"}, "EZH2 [5]": {"target": "T1, EZH2", "settings": "Table 7, EZH2 (incl. EED, SAH-hydrolase) inhibitors; read-out: pKi or IC50 (converted); cited from earlier work"}, "[6]": {"settings": "EZH2 inhibitors, active concentration range, <= is the upper end of a wrapped range"}, "[7]": {"settings": "EZH2 inhibitors, lower end of active range wrapped over two lines"}, "[8]": {"settings": "in combination with Wnt agonist CHIR99021"}, "[9]": {"settings": "EZH2 inhibitors, <= is the upper end of a wrapped range"}},
  "note": "Where two headings read alike, the source gives them in different places.",
  "data": [
    {"smiles": "COc1cc(C)[nH]c(=O)c1CNC(=O)c1c(C)n([C@H](C)C2CCN(CC(F)(F)F)CC2)c2ccccc12", "note": "[CPI-1205]", "values": [
      {"measurement": "Lgr5+ Assay", "setting": "[1]; [6]", "value": "≤ 30", "unit": "µM"},
      {"measurement": "Lgr5+ Assay", "setting": "[1]; [7]", "value": "≥ 100", "unit": "nM-"},
      {"measurement": "Lgr5 GFP(+) cell area", "setting": "[1]; FIG. 17A: 0-30 μM CPI-1205 alone in EFI", "value": "does not proliferate"},
      {"measurement": "enrichment of Lgr5 GFP+ cells (y-axis: Lgr5 GFP(+) cell area)", "setting": "[1]; FIG. 17B: 0-30 μM CPI-1205 alone in EFI", "value": "does not enrich"},
      {"measurement": "Lgr5 GFP(+) cell area", "setting": "[1]; FIG. 18A, 19A: 3.33 μM CPI-1205 + 4 μM CHIR99021 in EFI vs CHIR alone", "value": "enhances Lgr5 GFP+ progenitor cell proliferation"},
      {"measurement": "Lgr5 GFP(+) cell area percentage", "setting": "[1]; FIG. 18B, 19B: 3.33 μM CPI-1205 + 4 μM CHIR99021 in EFI vs CHIR alone", "value": "enhances enrichment"},
      {"measurement": "Lgr5+ progenitor cell proliferation and enrichment", "setting": "[2]; [8]", "value": "enhanced Lgr5+ progenitor cell proliferation and enrichment"},
      {"measurement": "proliferation or enrichment of cochlear progenitor cells", "setting": "[2]", "value": "does not promote the proliferation or enrichment"},
      {"measurement": "Human In Vivo Conc", "setting": "[3]; [9]", "value": "25 to 250", "unit": "µM"}
    ]},
    {"smiles": "Nc1nccc2c1ncn2[C@@H]1C=C(CO)[C@@H](O)[C@H]1O", "note": "[DZNep]", "values": [
      {"measurement": "Lgr5+ Assay", "setting": "[1]; EZH2 inhibitors, result in words", "value": "Active"},
      {"measurement": "Lit Cell Poten", "setting": "EZH2 [4]", "value": 1000, "unit": "nM"}
    ]},
    {"smiles": "CCc1c(N(CC)C2CCOCC2)cc2oc(C3CCN(C(C)C)CC3)cc2c1C(=O)NCc1c(C)cc(C)[nH]c1=O", "note": "[EBI-2511]", "values": [
      {"measurement": "IC50", "setting": "EZH2 [5]", "value": 4, "unit": "nM"}
    ]},
    {"smiles": "N#Cc1c2c(c3nncn3c1NCc1ccco1)CN(Cc1ccccc1)CC2", "note": "[EED162]", "values": [
      {"measurement": "IC50", "setting": "EZH2 [5]", "value": 30, "unit": "nM"},
      {"measurement": "Lit Cell Poten", "setting": "EZH2 [4]", "value": 80, "unit": "nM"}
    ]},
    {"smiles": "CC(C)N(CCCNC(=O)Nc1ccc(C(C)(C)C)cc1)C[C@H]1O[C@@H](n2ccc3c(N)ncnc32)[C@H](O)[C@@H]1O", "note": "[EPZ004777]", "values": [
      {"measurement": "Lgr5+ Assay", "setting": "[1]; DOT1L inhibitors, active concentration range", "value": "0.6-45 μm μM"},
      {"measurement": "Lgr5 GFP(+) cell count", "setting": "[1]; FIG. 34A: 15 μM EPZ004777 + 3 μM CHIR99021 in EFI vs EFI-C, EFI-CV", "value": "enhances Lgr5 GFP+ progenitor cell proliferation"},
      {"measurement": "Lgr5 GFP(+) cell proliferation percentage", "setting": "[1]; FIG. 34B: 15 μM EPZ004777 + 3 μM CHIR99021 in EFI vs EFI-C, EFI-CV", "value": "enhances enrichment"},
      {"measurement": "Lgr5+ progenitor cell proliferation and enrichment", "setting": "[2]; combined with CHIR99021, compared to CHIR99021 alone", "value": "proliferation and enrichment are enhanced"},
      {"measurement": "Human In Vivo Conc", "setting": "[3]; DOT1L inhibitors", "value": "0.1-45 uM μM"}
    ]},
    {"smiles": "CCN(c1cc(C#CCN2CCOCC2)cc(C(=O)NCc2c(C)cc(C)[nH]c2=O)c1C)[C@H]1CC[C@H](N(C)CCOC)CC1", "note": "[EPZ-011989]", "values": [
      {"measurement": "Lgr5+ Assay", "setting": "[1]; [6]", "value": "≤ 30", "unit": "µM"},
      {"measurement": "Lgr5+ Assay", "setting": "[1]; [7]", "value": "≥ 100", "unit": "nM-"},
      {"measurement": "Human In Vivo Conc", "setting": "[3]; [9]", "value": "0.10 to 30", "unit": "µM"},
      {"measurement": "Lit Cell Poten", "setting": "EZH2 [4]", "value": 94, "unit": "nM"}
    ]},
    {"smiles": "CCCc1cc(C)[nH]c(=O)c1CNC(=O)c1cc(-c2ccnc(N3CCN(C)CC3)c2)cc2c1cnn2C(C)C", "note": "[GSK343]", "values": [
      {"measurement": "Lit Cell Poten", "setting": "EZH2 [4]", "value": 174, "unit": "nM"}
    ]},
    {"smiles": "CC(C)N(CCCNC(=O)Nc1ccc(C(C)(C)C)cc1)C[C@H]1O[C@@H](n2cc(Br)c3c(N)ncnc32)[C@H](O)[C@@H]1O", "note": "[SGC0946]", "values": [
      {"measurement": "Lgr5 GFP(+) cell count", "setting": "[1]; FIG. 35A: […] SGC0946 + 3 μM CHIR99021 in EFI vs EFI-C, EFI-CV", "value": "enhances Lgr5 GFP+ progenitor cell proliferation"},
      {"measurement": "Lgr5 GFP(+) cell proliferation percentage", "setting": "[1]; FIG. 35B: […] SGC0946 + 3 μM CHIR99021 in EFI vs EFI-C, EFI-CV", "value": "enhances enrichment"},
      {"measurement": "Lgr5+ progenitor cell proliferation and enrichment", "setting": "[2]; [8]", "value": "proliferation and enrichment are enhanced"},
      {"measurement": "Human In Vivo Conc", "setting": "[3]; DOT1L inhibitors", "value": "0.1 to 5", "unit": "µM"}
    ]},
    {"smiles": "Nc1ncnc2c1ncn2[C@@H]1O[C@H](C[C@@H](N)CC[C@H](N)C(=O)O)[C@@H](O)[C@H]1O", "note": "[Sinefungin]", "values": [
      {"measurement": "IC50", "setting": "EZH2 [5]", "value": 20, "unit": "nM"}
    ]},
    {"smiles": "Cc1coc2c1C(=O)C(=O)c1c-2ccc2c1CC[C@H](O)[C@]2(C)O", "note": "[Tanshindiol B]", "values": [
      {"measurement": "IC50", "setting": "EZH2 [5]", "value": 520, "unit": "nM"}
    ]},
    {"smiles": "Cc1coc2c1C(=O)C(=O)c1c-2ccc2c1CC[C@@H](O)[C@]2(C)O", "note": "[Tanshindiol C]", "values": [
      {"measurement": "IC50", "setting": "EZH2 [5]", "value": 550, "unit": "nM"}
    ]},
    {"smiles": "CCCc1cc(C)[nH]c(=O)c1CNC(=O)c1cc(-c2ccc(N3CCN(C(=O)CCOCCOCCOCCOCCOCCOCCOCCOCCOCCOCCOCCOCCNC(=O)CCCC[C@@H]4SC[C@@H]5NC(=O)N[C@@H]54)CC3)nc2)cc2c1cnn2C(C)C", "note": "[UNC 2399]", "values": [
      {"measurement": "Lgr5+ Assay", "setting": "[1]; [6]", "value": "0.1 to 10", "unit": "µM"},
      {"measurement": "Lgr5 GFP(+) cell area", "setting": "[1]; FIG. 30A: 0-10 μM UNC 2399 alone in EFI", "value": "does not proliferate"},
      {"measurement": "enrichment of Lgr5 GFP+ cells (y-axis: Lgr5 GFP(+) cell area)", "setting": "[1]; FIG. 30B: 0-10 μM UNC 2399 alone in EFI", "value": "does not enrich"},
      {"measurement": "Lgr5 GFP(+) cell area", "setting": "[1]; FIG. 31A: 10 μM UNC 2399 + 4 μM CHIR99021 in EFI vs CHIR alone", "value": "enhances Lgr5 GFP+ progenitor cell proliferation"},
      {"measurement": "Lgr5 GFP(+) cell area percentage", "setting": "[1]; FIG. 31B: 10 μM UNC 2399 + 4 μM CHIR99021 in EFI vs CHIR alone", "value": "enhances enrichment"},
      {"measurement": "proliferation or enrichment of cochlear progenitor cells", "setting": "[2]", "value": "does not promote the proliferation or enrichment"},
      {"measurement": "Human In Vivo Conc", "setting": "[3]; [9]", "value": "0.1 to 100", "unit": "µM"}
    ]},
    {"smiles": "N[C@@H]1C[C@H]1c1ccccc1", "note": "[tranylcypromine]", "values": [
      {"measurement": "Lgr5 GFP(+) cell count", "setting": "[1]; FIG. 1A: 0-10 μM tranylcypromine alone in growth factors (EFI, 50 ng/mL each) vs EFI + 4 μM CHIR99021 (EFI-C) or + 1 mM VPA (EFI-CV)", "value": "does not proliferate"},
      {"measurement": "Lgr5 GFP(+) cell proliferation percentage", "setting": "[1]; FIG. 1B: 0-10 μM tranylcypromine alone in EFI vs EFI-C, EFI-CV", "value": "does not enrich"},
      {"measurement": "Lgr5 GFP(+) cell count", "setting": "[1]; FIG. 2A: 2 μM tranylcypromine + 4 μM CHIR99021 in EFI vs EFI-C, EFI-CV", "value": "enhances Lgr5 GFP+ progenitor cell proliferation"},
      {"measurement": "Lgr5 GFP(+) cell proliferation percentage", "setting": "[1]; FIG. 2B: 2 μM tranylcypromine + 4 μM CHIR99021 in EFI vs EFI-C, EFI-CV", "value": "enhances enrichment"},
      {"measurement": "Lgr5 GFP(+) cell count", "setting": "[1]; FIG. 3A: 4 μM tranylcypromine + 4 μM CHIR99021 + 1 mM VPA in EFI vs EFI-CV", "value": "enhances Lgr5 GFP+ progenitor cell proliferation"},
      {"measurement": "Lgr5 GFP(+) cell proliferation percentage", "setting": "[1]; FIG. 3B: 4 μM tranylcypromine + 4 μM CHIR99021 + 1 mM VPA in EFI vs EFI-CV", "value": "enhances enrichment"},
      {"measurement": "Lgr5+ progenitor cell proliferation and enrichment", "setting": "[2]; combined with CHIR99021 (4 μM) and VPA (1 mM)", "value": "proliferate and are enriched"},
      {"measurement": "Lgr5+ progenitor cell proliferation and enrichment", "setting": "[2]; combined with Wnt agonist CHIR99021 (4 μM)", "value": "proliferate and are enriched"},
      {"measurement": "proliferation or enrichment of cochlear progenitor cells", "setting": "[2]", "value": "does not promote the proliferation or enrichment"}
    ]}
  ]
}
